For orientation: inhibition means how much of the control response was suppressed.

A short description of series [1]: Inhibition of chemotaxis in human polymorphonuclear leukocytes assessed as inhibition of migration towards zymosan-activated human serum at 50 ug/ml after 30 mins by Boyden chamber technique. The class given is functional. The settings on record: 0.5 h.
Series [2] can be described thus: Inhibition of chemotaxis in human polymorphonuclear leukocytes assessed as inhibition of migration towards zymosan-activated human serum at 1 ug/ml after 30 mins by Boyden chamber technique. The format is functional. The note with it: 0.5 h.
Series [3] is described as follows: Inhibition of chemotaxis in human polymorphonuclear leukocytes assessed as inhibition of migration towards zymosan-activated human serum at 0.1 ug/ml after 30 mins by Boyden chamber technique. The format is functional. The note with it: 0.5 h.
Series [4] in a line: Inhibition of chemotaxis in human polymorphonuclear leukocytes assessed as inhibition of migration towards zymosan-activated human serum at 100 ug/ml after 30 mins by Boyden chamber technique. The class given is functional. The settings on record: 0.5 h.
Series [5] can be described thus: Inhibition of chemotaxis in human polymorphonuclear leukocytes assessed as inhibition of migration towards zymosan-activated human serum at 10 ug/ml after 30 mins by Boyden chamber technique. The class given is functional. The settings on record: 0.5 h.
Series [6] can be described thus: Cytotoxicity against human polymorphonuclear leukocyte assessed as cell viability at 50 to 100 ug/ml by trypan blue exclusion method. The note with it: polymorphonuclear leukocytes, read-out: INH.

Turning to `CC/C=C\C/C=C\C/C=C\CCCCCCCC(=O)OC[C@H](CO[C@@H]1O[C@H](CO)[C@H](O)[C@H](O)C1O)OC(=O)CCCCCCC/C=C\C/C=C\C/C=C\CC` (single isomer, unassigned), the inhibition at 50 µg/mL in series [1] worked out at 77%. The inhibition at 1 µg/mL in series [2] came to 64%. The inhibition at 0.1 µg/mL in series [3] stood at 7%. In series [4], the inhibition at 100 µg/mL came to 82%. Moreover, the inhibition at 10 µg/mL in series [5] amounted to 62%. Further, in series [6], the viability is 100%.
